Measured values: patent US20240139211A1, “METHODS AND COMPOSITIONS FOR TREATING AMYOTROPHIC LATERAL SCLEROSIS” (Amylyx Pharmaceuticals, Inc., priority 2022, published 2024)

Tests used:
Caco-2 cells = conditions: 1 and 10 μM (tauroursodeoxycholic acid: 10 μM)
BSEP = BSEP (Homo sapiens, UniProt O95342); experiment: Substrate of BSEP; conditions: test article 1 and 10 μM
MATE1 = molecular target: T1, MATE1 (Homo sapiens, UniProt Q96FL8); experiment: Inhibitor of MATE1, probe substrate uptake; conditions: for potency estimated from few doses: read-out: Estimated IC50, MATE1, estimated from two concentrations; for Inhibition of MATE1 / Inhibitor of MATE1: two concentrations per test article
T1 sequence (Q96FL8 1-570): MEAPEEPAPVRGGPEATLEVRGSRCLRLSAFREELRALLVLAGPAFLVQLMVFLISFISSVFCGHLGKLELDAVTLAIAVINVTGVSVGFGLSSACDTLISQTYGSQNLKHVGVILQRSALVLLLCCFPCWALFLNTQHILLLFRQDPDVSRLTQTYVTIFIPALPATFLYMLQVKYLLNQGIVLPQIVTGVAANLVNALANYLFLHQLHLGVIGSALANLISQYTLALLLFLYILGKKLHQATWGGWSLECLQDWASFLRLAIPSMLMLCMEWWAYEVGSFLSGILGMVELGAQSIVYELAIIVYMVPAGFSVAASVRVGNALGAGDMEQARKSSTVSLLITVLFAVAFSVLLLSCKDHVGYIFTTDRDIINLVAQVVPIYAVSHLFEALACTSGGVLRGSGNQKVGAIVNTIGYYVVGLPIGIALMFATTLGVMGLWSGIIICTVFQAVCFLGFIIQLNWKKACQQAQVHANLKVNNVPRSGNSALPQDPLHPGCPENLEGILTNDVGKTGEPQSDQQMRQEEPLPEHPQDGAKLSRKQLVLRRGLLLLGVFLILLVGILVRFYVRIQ

OATP1B1 = OATP1B1 (Homo sapiens, UniProt Q9Y6L6); experiment: Inhibitor of OATP1B1, probe substrate uptake; conditions: for Inhibition of OATP1B1 / Inhibitor of OATP1B1: two concentrations per test article
OATP1B3 = OATP1B3 (Homo sapiens, UniProt Q9NPD5); experiment: Inhibitor of OATP1B3, probe substrate uptake; conditions: for Inhibition of OATP1B3 / Inhibitor of OATP1B3: two concentrations per test article
human hepatocytes = experiment: Stability of test articles in hepatocyte cultures; conditions: two concentrations
P-gp = P-gp (Homo sapiens, UniProt P08183); experiment: Inhibitor of P-gp, 3H-digoxin efflux in Caco-2 cells
BCRP [1] = molecular target: T2, BCRP (Homo sapiens, UniProt Q9UNQ0); experiment: Substrate of BCRP (Caco-2 cells, selective inhibitor)
T2 sequence (Q9UNQ0 1-655): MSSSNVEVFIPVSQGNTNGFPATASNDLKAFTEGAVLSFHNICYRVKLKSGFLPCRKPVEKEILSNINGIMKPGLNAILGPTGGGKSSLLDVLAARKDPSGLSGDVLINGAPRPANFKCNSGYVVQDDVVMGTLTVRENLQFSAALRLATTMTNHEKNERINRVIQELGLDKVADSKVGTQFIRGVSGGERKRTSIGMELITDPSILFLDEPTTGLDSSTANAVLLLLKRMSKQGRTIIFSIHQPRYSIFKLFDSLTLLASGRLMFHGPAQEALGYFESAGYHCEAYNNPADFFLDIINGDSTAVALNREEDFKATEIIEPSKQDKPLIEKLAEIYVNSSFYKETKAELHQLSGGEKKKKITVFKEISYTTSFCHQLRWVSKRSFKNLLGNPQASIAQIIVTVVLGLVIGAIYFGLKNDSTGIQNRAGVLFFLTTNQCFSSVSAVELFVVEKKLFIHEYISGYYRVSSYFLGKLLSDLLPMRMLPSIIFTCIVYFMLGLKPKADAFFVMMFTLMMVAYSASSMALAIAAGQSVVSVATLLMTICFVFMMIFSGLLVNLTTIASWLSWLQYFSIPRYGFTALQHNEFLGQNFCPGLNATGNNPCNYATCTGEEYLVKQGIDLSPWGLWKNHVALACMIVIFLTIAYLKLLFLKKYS

BCRP [2] = molecular target: T2, BCRP; experiment: Inhibitor of BCRP, 3H-estrone-3-sulfate efflux in Caco-2 cells
MATE2K = MATE2K (Homo sapiens, UniProt Q86VL8); experiment: Substrate of MATE2-K, uptake in HEK293 cells; conditions: human, 2 min
Excerpt: Vector-transfected HEK cells were used as a control.

[3] = Caco-2, two concentrations per test article
[4] = two concentrations per test article, Caco-2 cells
[5] = test article 1 and 10 μM, Caco-2 cells

Sequence of OATP1B3 (Q9NPD5 whole entry): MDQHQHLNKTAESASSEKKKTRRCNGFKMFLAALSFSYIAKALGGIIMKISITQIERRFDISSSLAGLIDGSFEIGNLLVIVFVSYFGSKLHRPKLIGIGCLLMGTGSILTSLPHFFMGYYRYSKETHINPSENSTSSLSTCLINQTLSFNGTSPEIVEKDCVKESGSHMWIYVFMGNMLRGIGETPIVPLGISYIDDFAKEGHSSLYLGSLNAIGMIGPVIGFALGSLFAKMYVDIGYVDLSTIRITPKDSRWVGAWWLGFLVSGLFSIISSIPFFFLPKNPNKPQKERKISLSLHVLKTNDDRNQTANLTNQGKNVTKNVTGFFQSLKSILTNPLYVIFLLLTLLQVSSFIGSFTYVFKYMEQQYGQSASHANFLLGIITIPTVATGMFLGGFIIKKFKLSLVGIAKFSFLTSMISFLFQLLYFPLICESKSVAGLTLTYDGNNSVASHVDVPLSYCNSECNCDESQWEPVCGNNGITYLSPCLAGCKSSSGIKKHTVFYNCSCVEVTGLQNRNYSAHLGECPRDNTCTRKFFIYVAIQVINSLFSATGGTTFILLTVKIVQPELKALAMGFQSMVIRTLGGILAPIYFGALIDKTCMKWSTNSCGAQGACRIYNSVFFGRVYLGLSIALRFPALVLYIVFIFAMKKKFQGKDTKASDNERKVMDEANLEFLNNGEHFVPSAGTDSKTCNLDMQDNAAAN
Sequence of P-gp (P08183 whole entry): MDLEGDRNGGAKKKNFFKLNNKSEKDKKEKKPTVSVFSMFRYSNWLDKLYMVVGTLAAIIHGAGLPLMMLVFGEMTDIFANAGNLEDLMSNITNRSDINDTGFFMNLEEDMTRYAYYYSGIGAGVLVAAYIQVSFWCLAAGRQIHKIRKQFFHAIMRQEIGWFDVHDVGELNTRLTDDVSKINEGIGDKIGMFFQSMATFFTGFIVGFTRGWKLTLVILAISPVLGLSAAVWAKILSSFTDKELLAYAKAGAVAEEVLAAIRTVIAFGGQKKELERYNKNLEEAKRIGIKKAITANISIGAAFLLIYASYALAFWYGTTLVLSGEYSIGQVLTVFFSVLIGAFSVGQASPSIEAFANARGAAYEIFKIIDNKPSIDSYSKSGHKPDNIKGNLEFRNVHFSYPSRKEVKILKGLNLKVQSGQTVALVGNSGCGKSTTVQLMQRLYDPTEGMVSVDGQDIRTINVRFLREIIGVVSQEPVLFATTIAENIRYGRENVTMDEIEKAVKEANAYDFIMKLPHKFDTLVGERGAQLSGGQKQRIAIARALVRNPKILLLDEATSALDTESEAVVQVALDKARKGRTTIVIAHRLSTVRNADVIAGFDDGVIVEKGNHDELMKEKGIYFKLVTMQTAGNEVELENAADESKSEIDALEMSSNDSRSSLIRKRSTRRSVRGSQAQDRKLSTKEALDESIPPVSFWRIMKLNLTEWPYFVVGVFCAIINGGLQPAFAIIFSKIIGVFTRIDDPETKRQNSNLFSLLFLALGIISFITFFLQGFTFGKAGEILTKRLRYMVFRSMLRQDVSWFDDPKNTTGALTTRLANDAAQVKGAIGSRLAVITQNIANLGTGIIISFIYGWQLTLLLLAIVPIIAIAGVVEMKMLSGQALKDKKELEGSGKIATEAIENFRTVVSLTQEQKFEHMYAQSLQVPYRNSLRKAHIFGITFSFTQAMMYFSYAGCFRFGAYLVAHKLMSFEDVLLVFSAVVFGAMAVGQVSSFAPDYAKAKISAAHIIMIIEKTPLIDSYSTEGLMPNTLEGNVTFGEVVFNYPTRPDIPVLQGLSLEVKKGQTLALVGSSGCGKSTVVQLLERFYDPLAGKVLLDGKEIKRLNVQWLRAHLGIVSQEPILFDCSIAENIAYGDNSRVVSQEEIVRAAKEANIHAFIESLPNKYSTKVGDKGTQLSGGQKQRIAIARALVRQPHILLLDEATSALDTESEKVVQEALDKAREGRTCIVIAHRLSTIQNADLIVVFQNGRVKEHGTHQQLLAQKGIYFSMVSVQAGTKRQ
Sequence of OATP1B1 (Q9Y6L6 whole entry): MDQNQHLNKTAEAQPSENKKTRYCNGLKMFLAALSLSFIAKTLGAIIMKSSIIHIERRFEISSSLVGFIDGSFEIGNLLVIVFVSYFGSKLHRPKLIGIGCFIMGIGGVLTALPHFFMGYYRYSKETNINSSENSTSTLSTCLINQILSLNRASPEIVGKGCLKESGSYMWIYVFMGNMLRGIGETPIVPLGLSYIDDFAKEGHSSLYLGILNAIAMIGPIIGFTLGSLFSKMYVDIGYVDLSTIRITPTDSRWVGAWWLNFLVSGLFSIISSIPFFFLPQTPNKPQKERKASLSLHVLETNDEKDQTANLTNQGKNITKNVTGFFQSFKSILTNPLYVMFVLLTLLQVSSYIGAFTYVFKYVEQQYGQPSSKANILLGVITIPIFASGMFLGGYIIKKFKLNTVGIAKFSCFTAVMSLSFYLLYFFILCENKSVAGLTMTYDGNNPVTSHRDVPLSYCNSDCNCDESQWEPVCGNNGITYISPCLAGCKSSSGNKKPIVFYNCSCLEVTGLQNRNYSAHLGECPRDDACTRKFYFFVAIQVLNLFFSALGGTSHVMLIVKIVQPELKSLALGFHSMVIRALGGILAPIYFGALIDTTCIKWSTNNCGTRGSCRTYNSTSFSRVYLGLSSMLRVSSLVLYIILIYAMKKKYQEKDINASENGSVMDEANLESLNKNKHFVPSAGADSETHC
Sequence of BSEP (O95342 whole entry): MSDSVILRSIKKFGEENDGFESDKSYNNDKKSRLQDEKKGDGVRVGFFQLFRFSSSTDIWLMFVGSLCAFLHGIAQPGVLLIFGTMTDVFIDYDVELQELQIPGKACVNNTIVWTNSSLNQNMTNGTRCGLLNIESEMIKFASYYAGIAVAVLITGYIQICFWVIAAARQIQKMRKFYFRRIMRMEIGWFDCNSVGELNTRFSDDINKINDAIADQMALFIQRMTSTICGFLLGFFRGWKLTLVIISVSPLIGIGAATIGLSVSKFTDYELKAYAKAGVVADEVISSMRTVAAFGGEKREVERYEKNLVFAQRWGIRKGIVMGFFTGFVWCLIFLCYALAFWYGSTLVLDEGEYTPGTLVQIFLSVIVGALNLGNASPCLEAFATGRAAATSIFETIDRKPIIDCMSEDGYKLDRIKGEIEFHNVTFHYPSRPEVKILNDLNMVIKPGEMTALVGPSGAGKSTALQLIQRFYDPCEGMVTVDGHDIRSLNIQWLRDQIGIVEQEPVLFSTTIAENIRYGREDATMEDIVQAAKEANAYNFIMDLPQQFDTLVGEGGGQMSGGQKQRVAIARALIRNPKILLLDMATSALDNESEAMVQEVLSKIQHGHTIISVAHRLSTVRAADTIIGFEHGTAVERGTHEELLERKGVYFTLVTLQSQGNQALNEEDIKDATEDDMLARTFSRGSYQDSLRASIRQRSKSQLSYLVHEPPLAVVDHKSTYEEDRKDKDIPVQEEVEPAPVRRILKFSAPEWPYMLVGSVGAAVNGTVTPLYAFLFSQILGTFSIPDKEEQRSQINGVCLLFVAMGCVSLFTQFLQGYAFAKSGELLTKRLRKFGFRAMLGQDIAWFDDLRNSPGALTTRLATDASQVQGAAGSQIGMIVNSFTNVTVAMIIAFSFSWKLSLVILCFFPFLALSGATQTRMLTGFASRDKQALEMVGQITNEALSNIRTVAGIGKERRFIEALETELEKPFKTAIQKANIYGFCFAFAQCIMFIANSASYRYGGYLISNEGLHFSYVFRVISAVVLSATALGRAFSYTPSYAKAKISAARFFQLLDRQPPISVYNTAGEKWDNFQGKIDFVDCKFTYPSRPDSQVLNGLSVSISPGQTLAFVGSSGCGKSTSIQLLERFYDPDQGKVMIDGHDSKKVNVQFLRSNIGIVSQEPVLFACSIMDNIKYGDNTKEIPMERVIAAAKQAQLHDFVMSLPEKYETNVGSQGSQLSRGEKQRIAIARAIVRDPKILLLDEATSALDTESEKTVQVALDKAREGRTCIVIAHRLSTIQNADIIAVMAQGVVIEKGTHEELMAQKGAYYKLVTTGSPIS
Sequence of MATE2K (Q86VL8 1-566 isoform Q86VL8-3): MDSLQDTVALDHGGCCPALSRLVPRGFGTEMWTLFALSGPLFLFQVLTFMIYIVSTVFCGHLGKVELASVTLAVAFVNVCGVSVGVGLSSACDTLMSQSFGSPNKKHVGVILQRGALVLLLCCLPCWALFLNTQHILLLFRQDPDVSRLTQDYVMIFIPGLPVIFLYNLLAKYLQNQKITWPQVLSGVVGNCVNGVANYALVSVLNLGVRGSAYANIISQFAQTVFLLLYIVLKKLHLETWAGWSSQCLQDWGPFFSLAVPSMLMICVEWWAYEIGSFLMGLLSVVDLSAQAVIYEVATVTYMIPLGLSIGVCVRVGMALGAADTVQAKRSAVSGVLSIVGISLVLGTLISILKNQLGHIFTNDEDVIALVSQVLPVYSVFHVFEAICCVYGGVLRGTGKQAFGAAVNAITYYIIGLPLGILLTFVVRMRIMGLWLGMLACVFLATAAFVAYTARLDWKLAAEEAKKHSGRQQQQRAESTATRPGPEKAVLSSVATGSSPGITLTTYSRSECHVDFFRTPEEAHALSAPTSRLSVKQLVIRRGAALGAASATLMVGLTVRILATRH

| Compound | Permeability in Caco-2 cell assay (Caco-2 cells) | Substrate of BSEP (BSEP) | potency estimated from few doses (MATE1) | Inhibition of MATE1 (MATE1) | Inhibitor of MATE1 (MATE1) | Inhibition of OATP1B1 (OATP1B1) | Inhibitor of OATP1B1 (OATP1B1) | Inhibition of OATP1B3 (OATP1B3) | Inhibitor of OATP1B3 (OATP1B3) | % of time zero remaining in hepatocyte cultures (human hepatocytes; 1 hour) | % of time zero remaining in hepatocyte cultures (human hepatocytes; 4 hours) | % of time zero remaining in hepatocyte cultures (human hepatocytes; 24 hours) | Inhibitor of P-gp (P-gp; [3]) | Inhibitor of P-gp (P-gp; [4]) | Substrate of BCRP (BCRP [1]; Caco-2, 1 and 10 μM) | Substrate of BCRP (BCRP [1]; [5]) | Inhibitor of BCRP (BCRP [2]; [3]) | Inhibitor of BCRP (BCRP [2]; [4]) | further results |
| --- | --- | --- | --- | --- | --- | --- | --- | --- | --- | --- | --- | --- | --- | --- | --- | --- | --- | --- | --- |
| C[C@H](CCC(=O)NCC(=O)O)[C@H]1CC[C@H]2[C@@H]3[C@@H](O)C[C@@H]4C[C@H](O)CC[C@]4(C)[C@H]3CC[C@]12C [Glycoursodeoxycholic acid, glycoursodeoxycholic acid] | moderate permeability | Yes | > 100 µM | inhibited | Yes | inhibited | Yes | inhibited | Yes | ≤ 88.8% | ≤ 75.4% | ≤ 34.7% | identified as an inhibitor | Yes | as a substrate | Yes | identified as an inhibitor | Yes | Uptake activity remaining, OATP1B1 (OATP1B1; 10 μM): 50.4%; Uptake activity remaining, OATP1B1 (OATP1B1; 100 μM): 1.68%; Uptake activity remaining, OATP1B3 (OATP1B3; 100 μM): 10.6%; potency estimated from few doses (OATP1B3; read-out: Estimated IC50, OATP1B3, estimated from two concentrations): < 100 µM; potency estimated from few doses (P-gp; read-out: Estimated IC50, P-gp, estimated from two concentrations, Caco-2 cells): < 10 µM; Efflux remaining with Ko143 (BCRP [1]; Caco-2): < 18.8%; potency estimated from few doses (BCRP [2]; read-out: Estimated IC50, BCRP, estimated from two concentrations, Caco-2 cells): > 100 µM |
| O=C(O)CCCc1ccccc1 [PB, sodium phenylbutyrate] | high permeability | No | < 250 µM | inhibited | Yes | did not inhibit | No | did not inhibit | No | ≤ 84.0% | ≤ 60.7% | 0% | not an inhibitor | No | not a substrate | No | not an inhibitor | No | Decrease of MATE2-K uptake by known inhibitor (MATE2K): > 25%; Uptake in MATE2-K cells (MATE2K): 27.5 pmol/minute/mg protein; Uptake activity remaining, MATE1 (MATE1; 250 μM): 43.7%; Remaining P-gp activity, % of the control (P-gp; higher test concentration): 106%; Remaining P-gp activity, % of the control (P-gp; lower test concentration): 93.5%; Remaining BCRP activity, % of the control (BCRP [2]; higher test concentration (UDCA: second assay)): 84.7%; Remaining BCRP activity, % of the control (BCRP [2]; lower test concentration (UDCA: second assay)): 125% |
